# Laboratory results from patent US9669063B2, “Composition for prevention, amelioration or treatment of metabolic syndrome” (MORISHITA JINTAN CO., LTD., priority 2012, dated 2017).
# System: diet-induced obese mice
# Assay: Test Example 2: diet-induced obese mice on low-calorie feed with RHP, caffeine or their mixture, body weight, calorie intake, epididymal fat
# Assay type: in vivo, KK mice
# Experimental: Mice were fed with a high-calorie feed for the preparation of diet-induced obese mice. The calorie intake of the diet-induced obese mice was restricted so as to induce a state of facilitated resolution and utilization of body fat, and then the composition of the present invention containing a rose hip extract and caffeine was given to the mice. In this way, examination was conducted to determine whether the composition could facilitate the resolution and utilization of body fat and thereby ameliorate obesity. Five-week-old male KK mice were fed with water and the powder feed for breeding for three days, and then fed with the high-calorie feed for 3 weeks for the preparation of diet-induced obese mice. The diet-induced obese mice were divided into three groups (six mice per group) and fed with the feed (1) to (3) shown below for 2 weeks. The feeds given to the test groups are as follows. […] After the end of the test, the mice were euthanized, and epididymal fat tissue was harvested and weighed. […] The results are shown as the mean±SD of each group. Diet-induced obese mice were divided into four groups (six mice per group) and fed with the feed (4) to (7) shown below. Other test conditions were the same as in Test Example 1. The results in Table 3 were statistically analyzed by Dunnett's multiple comparison test. The symbol ** indicates a significant difference with a risk less than 1% from the control group.
compound,measurement,setting,value
Cn1c(=O)c2c(ncn2C)n(C)c1=O [caffeine],reduction in weight of epididymal fat tissue as compared with the control group,0.025 mass % caffeine in low-calorie feed,9.2%
same,statistical significance of fat-reducing effect vs control,"0.025 mass % caffeine in low-calorie feed, Dunnett's test",none of them showed any statistically significant fat-reducing effect
same,Body weight,"low-calorie feed + 0.025 mass % caffeine, 2 weeks, last day of test, mean±SD",35.2 ± 1.8 g
same,Epididymal fat weight,"low-calorie feed + 0.025 mass % caffeine, 2 weeks, mean±SD",1.60 ± 0.19 g/100 g body weight
